# Test results from patent US10759816B2, “Heterocyclic compounds as RSV inhibitors” (Enanta Pharmaceuticals, Inc., priority 2016, dated 2020).
# Test system: genotype A, "Long" strain RSV
# Test: RSV-A in vitro cytoprotection assay in HEp-2 cells (ATPlite readout of cell viability)
# Format: cell-based, Human respiratory syncytial virus
# Conditions: human respiratory syncytial virus, HEp-2, HEp-2 cells, genotype A “Long” strain RSV, cytoprotection; read-out: Human RSV-A (“Long” strain) EC50
# Source text: RSV is a single stranded negative sense RNA virus that causes respiratory tract infections which can be dangerous to infants, the elderly, and immunosuppressed individuals. Currently there is no vaccine, and therapeutic options are both costly and of limited effectiveness. These approved treatments are Ribavirin, and Palivizumab/Synagis (a monoclonal antibody). RSV has two genotypes, A and B, which differ primarily in the structure of the virus' surface “G” attachment protein. Our current primary screen focuses on RSV-A and uses an in vitro cytoprotection assay where compounds are added in 2-fold dilutions to cells which are then subjected to fully replicative viral particles. Cell viability is measured several days later along with separate measurements of compound cytotoxicity. This report focuses on the results of our most recent screening of compounds.
# HEp-2 cells, (originally derived from tumors grown in irradiated-cortisonised weanling rats that had been injected with epidermoid carcinoma tissue from a person's larynx, but later found to be indistinguishable from HeLa cells by PCR DNA analysis), were used for the culturing of genotype A, “Long” strain RSV. Flasks were inoculated with RSV and viral stocks were collected once cytopathic effect (CPE) was greater than 90%. Viral stocks in 25% sucrose media were snap frozen using liquid nitrogen to increase viral stability. Viral stock titers were quantified by tissue culture infectious dose 50% (TCID50) using 8,000 cells per well and 3-fold viral dilutions across a 96-well plate, cultured for 4 days.
# Following extensive parameter testing, the final assay is run as follows: HEp-2 cells are seeded into the inner 60 wells of a 96-well plate at 8,000 cells per well in a volume of 50 μL using Growth Media (DMEM without phenol red, 1% L-Glut, 1% Penn/Strep, 1% nonessential amino acids, 10% FBS). 2-Fold serial dilutions of control and test compounds are added to the wells in duplicate in a total volume of 25 μL. Viral stock is then added to the wells in a volume of 25 μL, bringing the total volume of each well to 100 μL. Each 96-well plate has a control column of 6 wells with cells and virus but no compound (negative control, max CPE), a column with cells but no compound or virus (positive control, minimum CPE), and a column with no cells or virus or compound (background plate/reagent control). The control wells with cells but no virus are given an additional 25 uL of growth media containing an equal quantity of sucrose as those wells receiving the viral stock in order to keep consistent in media and volume conditions. The outer wells of the plate are filled with 125 μL of growth media to act as a thermal and evaporative moat around the test wells. Following a 4-day incubation period, the plates are read using ATPlite (50 uL added per well), which quantifies the amount of ATP (a measure of cell health) present in each well. Assay plates are read using the Envision luminometer. In parallel, cytotoxicity is examined on an additional 96-well plate treated in an identical manner, but substituting the 25 μL of viral stock for 25 μL of growth media. […] EC50 ranges are as follows: A <0.4 μM; B 0.4-0.8 μM; C >0.8 μM.
row,SMILES,EC50 [nM]
1,Cc1cccc(F)c1NC(=O)c1cc2c(o1)-c1ccccc1N(C(=O)c1cccc(-c3c[nH]c4ncccc34)n1)CC2 [Example 274],< 400
2,Cc1cccc(F)c1NC(=O)c1cc2c(s1)-c1ccccc1N(C(=O)c1cccc(N[C@H]3CCCNC3=O)n1)CC2 [Example 477],> 800
3,Cc1cccc(F)c1NC(=O)c1cc2c(s1)-c1ccccc1N(C(=O)c1cccc(N3CCC[C@@H]3c3ccccn3)n1)CC2 [Example 484],< 400
4,COC[C@H]1CCCN1c1cccc(C(=O)N2CCc3cc(C(=O)Nc4c(C)cccc4F)sc3-c3ccc(C4CC4)cc32)n1 [Example 500],> 800
5,O=C(NC1CC1)c1cc2c(s1)-c1ccccc1N(C(=O)c1ccc3nc(CN4CCOCC4)oc3c1)CC2 [Example 11],> 800
6,COc1ncc(-c2cccc(C(=O)N3CCc4cc(C(=O)NC5CC5)sc4-c4ccccc43)n2)cc1C [Example 163],< 400
7,Cc1cccc(F)c1NC(=O)c1cc2c(s1)-c1ccccc1N(C(=O)c1cccc(-c3cn(C(=O)OC(C)(C)C)c4c(C)cccc34)n1)CC2 [Example 252],> 800
8,Cc1cccc(F)c1NC(=O)c1cc2c(s1)-c1ccccc1N(C(=O)c1cccc(-n3cnnc3C3CC3)n1)CC2 [Example 145],> 800
9,Cc1cccc(F)c1NC(=O)c1cc2c(s1)-c1ccccc1N(C(=O)c1cccc(-c3ccnn3C(C)C)n1)CC2 [Example 236],< 400
10,O=C(NC1CC1)c1cc2c(s1)-c1ccccc1N(C(=O)c1cccc(-c3cccnc3N3CCOCC3)n1)CC2 [Example 87],400 to 800
11,O=C(NC1CC1)c1nc2c(s1)CCN(C(=O)c1cccc(N3CCCOCC3)n1)c1ccccc1-2 [Example 108],400 to 800
12,O=C(NC1CC1)c1cc2c(s1)-c1ccccc1N(C(=O)c1ccnc(N3CCOCC3)n1)CC2 [Example 51],400 to 800
13,Cc1cccc(F)c1NC(=O)c1cc2c(s1)-c1ccccc1N(C(=O)c1cccc(N3CCCN(C(=O)OC(C)(C)C)CC3)n1)CC2 [Example 380],< 400
14,COc1ccc(-c2cccc(C(=O)N3CCc4cc(C(=O)NC5CC5)sc4-c4ccccc43)c2)cn1 [Example 6],> 800
15,Cc1cccc(F)c1NC(=O)c1cc2c(s1)-c1ccccc1N(C(=O)c1cccc(N3CC4(CCS4(=O)=O)C3)n1)CC2 [Example 472],> 800
16,Cc1cccc(F)c1NC(=O)c1cc2c(s1)-c1ccccc1N(C(=O)c1cccc(-c3cn(C(=O)OC(C)C)nc3C3CC3)n1)CC2 [Example 223],< 400
17,Cc1cccc(F)c1NC(=O)c1cc2c(s1)-c1ccccc1N(C(=O)c1cccc(N3CCCNCC3)n1)CC2 [Example 381],> 800
18,O=C(NC1CC1)c1cc2c(s1)-c1ccccc1N(C(=O)c1cccc(-c3cnn(C4COC4)c3)n1)CC2 [Example 158],> 800
19,Cc1cccc(F)c1NC(=O)c1cc2c(s1)-c1ccccc1N(C(=O)c1cccc(N3C[C@@H](NC(=O)OC(C)(C)C)C[C@@H]3C)n1)CC2 [Example 389],< 400
20,Cc1cccc(F)c1NC(=O)c1cc2c(s1)-c1ccccc1N(C(=O)c1cccc(-c3cnc(C4CC4)n3C3CC3)n1)CC2 [Example 200],< 400
21,O=C(NC1CC1)c1cc2c(s1)-c1ccccc1N(C(=O)c1cccc(-c3cc(N4CCOCC4)ncc3F)n1)CC2 [Example 91],400 to 800
22,COc1ccc(-c2cccc(C(=O)N3CCc4cc(C(=O)Nc5c(C)cccc5F)sc4-c4ccccc43)n2)cn1 [Example 264],> 800
23,O=C(c1cccc(N2CCCOCC2)n1)N1CCc2cc(S(=O)(=O)NC3CCOCC3)sc2-c2ccccc21 [Example 318],> 800
24,O=C(NC1CC1)c1cc2c(s1)-c1ccccc1N(C(=O)c1ccc3ncn(C4CCOCC4)c3c1)CC2 [Example 13],> 800
25,Cc1cccc(F)c1NC(=O)c1cc2c(s1)-c1ccccc1N(C(=O)c1cccc(NC[C@H]3CCCO3)n1)CC2 [Example 460],< 400

# Same assay, conditions: human respiratory syncytial virus, HEp-2, read-out: Human RSV-A (“Long” strain) EC50
row,SMILES,EC50 [nM]
1,Cc1ccc2c(c1)c(-c1cccc(C(=O)N3CCc4cc(C(=O)Nc5c(C)cccc5F)sc4-c4ccccc43)n1)cn2[Si](C)(C)C(C)(C)C [Example 254],> 800
